# Assay results reported in patent US10307418B2, “Azole pharmaceutical formulations for parenteral administration and methods for preparing and using the same as treatment of diseases sensitive to azole compounds” (Platform Brightworks Two, Ltd., priority 2010, dated 2019).
# Several values for one entry are separate records, joined by “and”; a condition that tells them apart may be missing. Equal values may be shown once. Read-outs that look alike come from different tables or passages of the source.
# Tests used:
# [1] = Maximum solubility of ITZA and azole analogues in solvents (HPLC); assay type: physicochemical; conditions: for solubility at 30 min: organic solvent or mixture, thermodynamic from solid
# Protocol: ITZA and its analogues were dissolved in various solvents incubated at 37° C. for 30 minutes, cooled down to room temperature, centrifuged at 14,000 rpm for 1 min. The supernatant was analyzed using HPLC to determine the maximum solubility of ITZA and its azole analogues.
# In a first step the maximum ITZA solubility in various single solvents was determined. To this end, ITZA and its analogs were dissolved in various solvents, incubated at 37° C. for 30 minutes, cooled down to room temperature, centrifuged at 14,000 rpm for 1 min. The supernatant was analyzed using HPLC to determine the maximum solubility of the respective agent.
# The solubility of ITZA was determined in several individual vehicles. Briefly, a known amount of ITZA drug, formulated as a powder (Sigma Inc., St Louis, Mo.), was equilibrated in the respective solvent at RT over 1-4 hours. An aliquot was removed, filtered, and prepared for HPLC to determine maximum solubility at room temperature. Based on the ITZA solubility in each vehicle, different solvents were mixed according to the cosolvency principle in an attempt to arrive at an enhanced stable solubility. […] The stock formulation was then diluted with a final diluent, i.e. NS or D5W or DlOW, to yield a stable use-formulation. The desired range of the final use-formulation was between 1 and 5 mg/mL, as it would result in a final volume that could be safely and conveniently infused intravascularly.
# An excess of ITZA as a powder was added to a multitude of chemical solvents (Table 1) at RT. Each mixture was intermittently vortexed, placed in a dark environment and checked visually for up to 4 hours for evidence of solubilization. Following centrifugation to remove solid particles, small samples were withdrawn after consecutive time intervals and the ITZA concentration was determined by HPLC as described.
# [2] = cited from earlier work
# in vivo = conditions: both, Swiss Webster, mouse, plasma, iv, 5 mg/kg
# Protocol: (§1) Swiss Webster mice were used for pharmacokinetic studies of ITZA and its analogs. The dilation of the vein was accomplished by warming up the mice using a heat lamp. […] Mice were allowed to recover and blood samples were obtained through cardiac puncture under general anesthesia with Isoflurane/oxygen by vaporizer at various time points. Plasma was obtained by centrifugation of blood sample at 3,200 rpm for 5 min. at 4° C. Plasma proteins were precipitated by adding acetonitrile (twice the volume of plasma). The mixture was vortexed for 30 seconds and centrifuged for 5 min. at 14,000 rpm. The supernatant was saved and was injected into the HPLC to determine the respective drug concentrations.
# (§2) Unless specified, the analogous experiments were performed using POSA as an alternative to ITZA; Swiss Webster mice of both sexes with a body weight of 25-30 g were used for the in vivo pharmacology experiments (Harlan-Sprague-Dawley, Houston, Tex.). The animals were allowed a minimum of 7 days after arrival to accommodate to the new environment and allowed free access to commercial feed and tap water prior to and during the experimentation period. The animals were housed in an Association for the Assessment and Accreditation of Laboratory Animal Care International (AAALAC)-approved facility that meets the requirements of the USDA, NIH, and DHHS.
# (§3) The ITZA dose of 5 mg/kg BW was determined to be a suitable test dose that could be administered to the mice as a slow (3-4 min) IV bolus injection without requiring sedation, but could be performed with only minimal physical restraint of the animals in a standard funnel-type cage.
# (§4) The ITZA was formulated in the H3 solvent system described above as the preferred solvent to a stock concentration of 4-5 mg/mL and then diluted with NS (ratio 1:1) so the intended dose (5.0 mg/kg BW) could be injected in a tail vein in a total volume of approximately 100 μL. […] No sedative premedication was used for the mice in this experiment to avoid the possible induction of microsomal liver enzymes that could modify ITZA metabolism. Thus, the animals were unanesthetized, being only physically restrained during and immediately following the drug injection.
# (§5) Blood samples (0.5-1.0 mL) were drawn through cardiac puncture into heparinized tubes at selected time points prior to the drug infusion (“blank”), and from 5 min to 1 hour after drug injection for determination of ITZA concentrations, and for 5 min to about 7 hrs in the POSA experiment. The mice were exposed to 2% -4% isoflurane for general anesthesia. Blood samples were obtained through cardiac puncture and immediately deposited in heparinized microcentrifuge tubes.
# [3] = Plasma pharmacology after IV injection in mice
# Protocol: as §1, §2, §3, §4, §5
# [4] = Stability of ITZA/POSA in solvent vehicles (HPLC); assay type: physicochemical; parameters: POSA concentration: unit: mg/mL; conditions: for POSA concentration: single determination
# [5] = POSA in H3G/5% Dextrose., 24 hr
structure (smiles),measurement,setting,value
"CC[C@@H]([C@H](C)O)n1ncn(-c2ccc(N3CCN(c4ccc(OC[C@@H]5CO[C@@](Cn6cncn6)(c6ccc(F)cc6F)C5)cc4)CC3)cc2)c1=O [POSA, posaconazole]",solubility at 30 min,"[1]; solvent H3D (no benzyl alcohol), solvent H3D (no benzyl alcohol), single determination, read-out: Azole solubility, [Drug] mg/mL",33.8 mg/mL
same,solubility at 30 min,"[1]; solvent H3D (no benzyl alcohol), solvent H3D (no benzyl alcohol), read-out: Azole solubility, Average mg/mL",35.3 mg/mL
same,"Azole solubility, [Drug] mg/mL","[1]; solvent H3D (no benzyl alcohol), single determination",35.08 mg/mL and 37.14 mg/mL
same,solubility at 30 min,"[1]; solvent H3G (no benzyl alcohol), solvent H3G (no benzyl alcohol), single determination, read-out: Azole solubility, [Drug] mg/mL",30.6 mg/mL
same,solubility at 30 min,"[1]; solvent H3G (no benzyl alcohol), solvent H3G (no benzyl alcohol), read-out: Azole solubility, Average mg/mL",32.2 mg/mL
same,"Azole solubility, [Drug] mg/mL","[1]; solvent H3G (no benzyl alcohol), single determination",33.86 mg/mL and 32.04 mg/mL
same,known plasma half-life,"[2]; literature (Ref 24, 32, 42, 45)",25 to 35 h
same,half-life after oral administration,"[2]; oral drug, literature",15 to 30 h
same,half-life,in vivo,6 to 7 h
same,tolerability of IV injection (in words),"[3]; 5.0 mg/kg BW, slow injection over 3-4 min",well accepted
same,apparent in vivo half-life,[3]; 5 mg/kg IV,6 to 7 h
same,time plasma concentrations remain in the fungi-toxic range,[3]; IV dose of 5 mg/kg,in excess of one hour
same,peak concentration (plasma),[3]; IV injection of 5 mg/kg over 4 min,3.2 to 3.3 µg/mL
same,% of 0 hr,"[4]; POSA in H3G, 0 hr",100%
same,average,"[4]; POSA in H3G, 0 hr",3.70 mg/mL
same,POSA concentration,"[4]; POSA in H3G, 0 hr",3.76 and 3.69 and 3.66
same,% of 0 hr,"[4]; POSA in H3G, 2 hr",102%
same,average,"[4]; POSA in H3G, 2 hr",3.78 mg/mL
same,POSA concentration,"[4]; POSA in H3G, 2 hr",3.93 and 3.73 and 3.67
same,% of 0 hr,"[4]; POSA in H3G, 4 hr",114%
same,average,"[4]; POSA in H3G, 4 hr",4.23 mg/mL
same,POSA concentration,"[4]; POSA in H3G, 4 hr",3.98 and 4.33 and 4.37
same,% of 0 hr,"[4]; POSA in H3G, 6 hr",114%
same,average,"[4]; POSA in H3G, 6 hr",4.23 mg/mL
same,POSA concentration,"[4]; POSA in H3G, 6 hr",3.98 and 4.33 and 4.37
same,% of 0 hr,"[4]; POSA in H3G, 8 hr",97%
same,average,"[4]; POSA in H3G, 8 hr",3.57 mg/mL
same,POSA concentration,"[4]; POSA in H3G, 8 hr",3.68 and 3.47 and 3.57
same,% of 0 hr,"[4]; POSA in H3G, 24 hr",99%
same,average,"[4]; POSA in H3G, 24 hr",3.65 mg/mL
same,POSA concentration,"[4]; POSA in H3G, 24 hr",3.73 and 3.52 and 3.70
same,% of 0 hr,"[4]; POSA in H3G/5% Dextrose., 0 hr",100%
same,POSA concentration,"[4]; POSA in H3G/5% Dextrose., 0 hr",1.76 and 1.68
same,% of 0 hr,"[4]; POSA in H3G/5% Dextrose., 2 hr",109%
same,POSA concentration,"[4]; POSA in H3G/5% Dextrose., 2 hr",1.84 and 1.81 and 2.02
same,% of 0 hr,"[4]; POSA in H3G/5% Dextrose., 4 hr",113%
same,POSA concentration,"[4]; POSA in H3G/5% Dextrose., 4 hr",1.92 and 1.91 and 2.03
same,% of 0 hr,"[4]; POSA in H3G/5% Dextrose., 6 hr",109%
same,POSA concentration,"[4]; POSA in H3G/5% Dextrose., 6 hr",1.75 and 1.93 and 2.01
same,% of 0 hr,"[4]; POSA in H3G/5% Dextrose., 8 hr",106%
same,POSA concentration,"[4]; POSA in H3G/5% Dextrose., 8 hr",1.71 and 1.89 and 1.92
same,% of 0 hr,[4]; [5],105%
same,POSA concentration,[4]; [5],1.78 and 1.80 and 1.87
same,% of 0 hr,"[4]; POSA in H3d, 0 hr",100%
same,average,"[4]; POSA in H3d, 0 hr",3.78 mg/mL
same,POSA concentration,"[4]; POSA in H3d, 0 hr",3.82 and 3.75 and 3.78
same,% of 0 hr,"[4]; POSA in H3d, 2 hr",100%
same,average,"[4]; POSA in H3d, 2 hr",3.79 mg/mL
same,POSA concentration,"[4]; POSA in H3d, 2 hr",3.67 and 3.81 and 3.89
same,% of 0 hr,"[4]; POSA in H3d, 4 hr",112%
same,average,"[4]; POSA in H3d, 4 hr",4.24 mg/mL
same,POSA concentration,"[4]; POSA in H3d, 4 hr",4.00 and 4.15 and 4.56
same,% of 0 hr,"[4]; POSA in H3d, 6 hr",118%
same,average,"[4]; POSA in H3d, 6 hr",4.45 mg/mL
same,POSA concentration,"[4]; POSA in H3d, 6 hr",4.20 and 4.32 and 4.82
same,% of 0 hr,"[4]; POSA in H3d, 8 hr",106%
same,average,"[4]; POSA in H3d, 8 hr",3.99 mg/mL
same,POSA concentration,"[4]; POSA in H3d, 8 hr",4.18 and 3.77 and 4.03
same,% of 0 hr,"[4]; POSA in H3d, 24 hr",101%
same,average,"[4]; POSA in H3d, 24 hr",3.83 mg/mL
same,POSA concentration,"[4]; POSA in H3d, 24 hr",3.81 and 3.75 and 3.92
same,% of 0 hr,"[4]; POSA in H3d/5% Dextrose, 0 hr",100%
same,POSA concentration,"[4]; POSA in H3d/5% Dextrose, 0 hr",1.75 and 1.77 and 1.81
same,% of 0 hr,"[4]; POSA in H3d/5% Dextrose, 2 hr",100%
same,POSA concentration,"[4]; POSA in H3d/5% Dextrose, 2 hr",1.77 and 1.74 and 1.83
same,% of 0 hr,"[4]; POSA in H3d/5% Dextrose, 4 hr",111%
same,POSA concentration,"[4]; POSA in H3d/5% Dextrose, 4 hr",1.88 and 1.81 and 2.20
same,% of 0 hr,"[4]; POSA in H3d/5% Dextrose, 6 hr",109%
same,POSA concentration,"[4]; POSA in H3d/5% Dextrose, 6 hr",1.95 and 1.93 and 1.94
same,% of 0 hr,"[4]; POSA in H3d/5% Dextrose, 8 hr",102%
same,POSA concentration,"[4]; POSA in H3d/5% Dextrose, 8 hr",1.86 and 1.68 and 1.90
same,% of 0 hr,"[4]; POSA in H3d/5% Dextrose, 24 hr",103%
same,POSA concentration,"[4]; POSA in H3d/5% Dextrose, 24 hr",1.78 and 1.79 and 1.93
